In US9206184B2, “Disubstituted benzothienyl-pyrrolotriazines and uses thereof” (BAYER INTELLECTUAL PROPERTY GmbH, priority 2011, dated 2015):
Where a name gives a salt, the structure may show the parent alone.

target: human FGFR-1 (Homo sapiens, UniProt P11362); experiment: FGFR-1 high ATP kinase assay (TR-FRET); type: biochemical; conditions: 2 mM ATP; 15 min pre-incubation with enzyme; compounds of the invention
Sequence (P11362 22-822 limits assumed): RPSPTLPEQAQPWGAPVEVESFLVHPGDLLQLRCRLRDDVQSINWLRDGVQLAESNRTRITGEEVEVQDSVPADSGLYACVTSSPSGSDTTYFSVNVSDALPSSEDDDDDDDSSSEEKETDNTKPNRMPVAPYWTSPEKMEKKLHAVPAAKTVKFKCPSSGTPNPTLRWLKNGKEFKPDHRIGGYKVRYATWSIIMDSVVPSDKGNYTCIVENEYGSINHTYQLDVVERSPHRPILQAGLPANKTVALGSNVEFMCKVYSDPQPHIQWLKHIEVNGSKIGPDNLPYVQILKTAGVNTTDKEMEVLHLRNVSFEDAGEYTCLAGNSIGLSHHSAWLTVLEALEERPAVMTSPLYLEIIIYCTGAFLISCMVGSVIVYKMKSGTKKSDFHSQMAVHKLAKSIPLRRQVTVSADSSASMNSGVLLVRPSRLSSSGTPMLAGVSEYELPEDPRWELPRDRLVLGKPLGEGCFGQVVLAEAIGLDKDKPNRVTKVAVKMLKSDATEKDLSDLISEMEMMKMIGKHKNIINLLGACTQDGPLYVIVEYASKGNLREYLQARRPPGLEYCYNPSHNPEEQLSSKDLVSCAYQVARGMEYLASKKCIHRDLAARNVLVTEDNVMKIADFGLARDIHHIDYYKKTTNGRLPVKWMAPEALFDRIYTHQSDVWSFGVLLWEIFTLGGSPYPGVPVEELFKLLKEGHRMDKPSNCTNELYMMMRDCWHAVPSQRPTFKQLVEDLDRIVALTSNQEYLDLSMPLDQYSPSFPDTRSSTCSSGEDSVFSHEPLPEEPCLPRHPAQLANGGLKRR

**Q.** With CCOCc1c(-c2cc3cc(C)cc(OC)c3s2)c2c(N)ncnn2c1C(=O)N[C@H]1CCNC1=O [Example 116] as the compound, how does the IC50 read?
**A.** Its IC50 is 3.7 nM.

**Q.** With CCOCc1c(-c2cc3cc(C)cc(OC)c3s2)c2c(N)ncnn2c1CN1CNC(=O)C1 [Example 104] as the compound, how does the IC50 read?
**A.** The IC50 was 5.6 nM.

**Q.** CCOCc1c(-c2cc3cc(C)cc(OC)c3s2)c2c(N)ncnn2c1CN1CCNC(=O)C1C (centres unmarked) [Example 105] was tested. Which IC50 did it give?
**A.** The IC50 was 8.7 nM.

**Q.** How did the IC50 turn out when COc1cc(C)cc2cc(-c3c(COC(C)C)c(CN4CCNCC4)n4ncnc(N)c34)sc12 [Example 27, 6-(Isopropoxymethyl)-5-(7-methoxy-5-methyl-1-benzothiophen-2-yl)-7-(piperazin-1-ylmethyl)pyrrolo[2,1-f][1,2,4]triazin-4-amine formiate] was run?
**A.** Its IC50 is 1.3 nM.

**Q.** Which IC50 does the source give for CCOCc1c(-c2cc3cc(C)cc(OC)c3s2)c2c(N)ncnn2c1CN1CCC(O)C1 (centres unmarked) [Example 101] here?
**A.** Its IC50 is 30.8 nM.

**Q.** COc1cc(C)cc2cc(-c3c(CO)c(CN4CCNCC4)n4ncnc(N)c34)sc12 [Example 12, [4-Amino-5-(7-methoxy-5-methyl-1-benzothiophen-2-yl)-7-(piperazin-1-ylmethyl)pyrrolo[2,1-f]-[1,2,4]triazin-6-yl]methanol bis(formiate)] was tested. Which IC50 did it give?
**A.** The IC50 was 3.3 nM.

**Q.** With CCN(CC)Cc1c(-c2cc3cc(C)cc(OC)c3s2)c2c(N)ncnn2c1CN1CCNCC1 [Example 43, 6-[(Diethylamino)methyl]-5-(7-methoxy-5-methyl-1-benzothiophen-2-yl)-7-(piperazin-1-ylmethyl)pyrrolo[2,1-f][1,2,4]triazin-4-amine trihydrochloride] as the compound, how does the IC50 read?
**A.** The IC50 was 8.6 nM.

**Q.** Which IC50 does the source give for CCOCc1c(-c2cc3cc(C)cc(OC)c3s2)c2c(N)ncnn2c1C(=O)N1CCCCO1 [Example 112] here?
**A.** Its IC50 is 42.1 nM.

**Q.** For CCOCc1c(-c2cc3cc(C)cc(OC)c3s2)c2c(N)ncnn2c1CN1CCCCO1 [Example 94], which IC50 is on record?
**A.** The IC50 was 81.9 nM.

**Q.** How did the IC50 turn out when CNCc1c(-c2cc3cc(C)cc(OC)c3s2)c2c(N)ncnn2c1CN1CCNCC1 [Example 36, 5-(7-Methoxy-5-methyl-1-benzothiophen-2-yl)-6-[(methylamino)methyl]-7-(piperazin-1-ylmethyl)pyrrolo[2,1-f][1,2,4]triazin-4-amine trihydrochloride] was run?
**A.** Its IC50 is 3 nM.

**Q.** CCOCc1c(-c2cc3cc(C)cc(OC)c3s2)c2c(N)ncnn2c1CN1CCNC1=O [Example 87, 1-{[4-Amino-6-(ethoxymethyl)-5-(7-methoxy-5-methyl-1-benzothiophen-2-yl)pyrrolo[2,1-f]-[1,2,4]triazin-7-yl]methyl}imidazolidin-2-one] was tested. Which IC50 did it give?
**A.** The IC50 was 14.1 nM.

**Q.** Which IC50 does the source give for CCOCc1c(-c2cc3cc(C)cc(OC)c3s2)c2c(N)ncnn2c1C(=O)N1CCC(C(N)=O)CC1 [Example 113] here?
**A.** Its IC50 is 52.7 nM.

**Q.** How did the IC50 turn out when CCOCc1c(-c2cc3cc(C)cc(OC)c3s2)c2c(N)ncnn2c1CN1CCN(C2CC2)CC1 [Example 100] was run?
**A.** The IC50 was 54.5 nM.

**Q.** How did the IC50 turn out when CCOCc1c(-c2cc3cc(C)cc(OC)c3s2)c2c(N)ncnn2c1C(=O)NC [Example 110] was run?
**A.** The IC50 was 17.5 nM.

**Q.** For CCOCc1c(-c2cc3cc(C)cc(OC)c3s2)c2c(N)ncnn2c1CN1CCOCC1 [Example 10, 6-(Ethoxymethyl)-5-(7-methoxy-5-methyl-1-benzothiophen-2-yl)-7-(morpholin-4-ylmethyl)pyrrolo[2,1-f][1,2,4]triazin-4-amine], which IC50 is on record?
**A.** Its IC50 is 12.7 nM.

**Q.** COCc1c(-c2cc3cccc(OC)c3s2)c2c(N)ncnn2c1CN1CCNC(=O)C1 [Example 88, 4-{[4-Amino-5-(7-methoxy-1-benzothiophen-2-yl)-6-(methoxymethyl)pyrrolo[2,1-f][1,2,4]triazin-7-yl]methyl}piperazin-2-one] was tested. Which IC50 did it give?
**A.** Its IC50 is 79.6 nM.

**Q.** CCOCc1c(-c2cc3cc(C)cc(OC)c3s2)c2c(N)ncnn2c1C(=O)NC1CC1 [Example 115] was tested. Which IC50 did it give?
**A.** Its IC50 is 24.9 nM.

**Q.** With CCOCc1c(-c2cc3cc(C)cc(OC)c3s2)c2c(N)ncnn2c1CN1CCCC1 [Example 96] as the compound, how does the IC50 read?
**A.** The IC50 was 54.5 nM.

**Q.** CCCCOCc1c(-c2cc3cc(C)cc(OC)c3s2)c2c(N)ncnn2c1CN1CCNCC1 [Example 23, 6-(Butoxymethyl)-5-(7-methoxy-5-methyl-1-benzothiophen-2-yl)-7-(piperazin-1-ylmethyl)pyrrolo-[2,1-f][1,2,4]triazin-4-amine formiate] was tested. Which IC50 did it give?
**A.** Its IC50 is 17.9 nM.

**Q.** For CCOCc1c(-c2cc3cc(C)cc(OC)c3s2)c2c(N)ncnn2c1C(N)=O [Example 109], which IC50 is on record?
**A.** Its IC50 is 8.4 nM.

**Q.** How did the IC50 turn out when COc1cc(C)cc2cc(-c3c(CN4CCNC(=O)C4)c(CO)n4ncnc(N)c34)sc12 [Example 125, 4-{[4-Amino-7-(hydroxymethyl)-5-(7-methoxy-5-methyl-1-benzothiophen-2-yl)pyrrolo[2,1-f]-[1,2,4]triazin-6-yl]methyl}piperazin-2-one] was run?
**A.** The IC50 was 5 nM.

**Q.** Which IC50 does the source give for CCOCc1c(-c2cc3cc(C)cc(OC)c3s2)c2c(N)ncnn2c1C(=O)N1CC(F)(F)C1 [Example 122] here?
**A.** The IC50 was 18.9 nM.

**Q.** How did the IC50 turn out when CCOCc1c(-c2cc3cc(C)cc(OC)c3s2)c2c(N)ncnn2c1C(=O)N1CCS(=O)(=O)CC1 [Example 123] was run?
**A.** The IC50 was 25.1 nM.

**Q.** For COC(=O)COCc1c(-c2cc3cc(C)cc(OC)c3s2)c2c(N)ncnn2c1CN1CCNCC1 [Example 31, Methyl{[4-amino-5-(7-methoxy-5-methyl-1-benzothiophen-2-yl)-7-(piperazin-1-ylmethyl)pyrrolo[2,1-f][1,2,4]triazin-6-yl]methoxy}acetate], which IC50 is on record?
**A.** The IC50 was 1.5 nM.

**Q.** CCOCc1c(-c2cc3cc(C)cc(OC)c3s2)c2c(N)ncnn2c1CN1CC(O)C1 [Example 97] was tested. Which IC50 did it give?
**A.** Its IC50 is 16.4 nM.

**Q.** With COCc1c(-c2cc3cc(OC)cc(OC)c3s2)c2c(N)ncnn2c1CN1CCNC(=O)C1 [Example 124, 4-{[4-Amino-5-(5,7-dimethoxy-1-benzothiophen-2-yl)-6-(methoxymethyl)pyrrolo[2,1-f][1,2,4]-triazin-7-yl]methyl}piperazin-2-one] as the compound, how does the IC50 read?
**A.** Its IC50 is 27.3 nM.

**Q.** CCNC(=O)c1c(COCC)c(-c2cc3cc(C)cc(OC)c3s2)c2c(N)ncnn12 [Example 111] was tested. Which IC50 did it give?
**A.** Its IC50 is 27 nM.

**Q.** How did the IC50 turn out when CCOCc1c(-c2cc3cc(C)cc(OC)c3s2)c2c(N)ncnn2c1CN[C@H]1CCNC1=O [Example 93, (3S)-3-({[4-Amino-6-(ethoxymethyl)-5-(7-methoxy-5-methyl-1-benzothiophen-2-yl)pyrrolo[2,1-f]-[1,2,4]triazin-7-yl]methyl}amino)pyrrolidin-2-one] was run?
**A.** Its IC50 is 5.5 nM.

**Q.** CCOCc1c(-c2cc3cc(C)cc(OC)c3s2)c2c(N)ncnn2c1CN[C@@H]1CCNC1=O [Example 8, (3R)-3-({[4-Amino-6-(ethoxymethyl)-5-(7-methoxy-5-methyl-1-benzothiophen-2-yl)pyrrolo-[2,1-f][1,2,4]triazin-7-yl]methyl}amino)pyrrolidin-2-one] was tested. Which IC50 did it give?
**A.** The IC50 was 9.4 nM.

**Q.** COc1cc(C)cc2cc(-c3c(-c4cnco4)c(CN4CCNCC4)n4ncnc(N)c34)sc12 [Example 61, 5-(7-Methoxy-5-methyl-1-benzothiophen-2-yl)-6-(1,3-oxazol-5-yl)-7-(piperazin-1-ylmethyl)pyrrolo[2,1-f][1,2,4]triazin-4-amine trihydrochloride] was tested. Which IC50 did it give?
**A.** The IC50 was 0.5 nM.

**Q.** For CCCOCc1c(-c2cc3cc(C)cc(OC)c3s2)c2c(N)ncnn2c1CN1CCNCC1 [Example 24, 5-(7-Methoxy-5-methyl-1-benzothiophen-2-yl)-7-(piperazin-1-ylmethyl)-6-(propoxymethyl)pyrrolo[2,1-f][1,2,4]triazin-4-amine bis(formiate)], which IC50 is on record?
**A.** Its IC50 is 1.3 nM.

same assay, conditions: 2 mM ATP; 15 min pre-incubation with enzyme; compounds of the invention; dihydrochloride

**Q.** CCOCc1c(-c2cc3cc(C)cc(OC)c3s2)c2c(N)ncnn2c1CN[C@@H]1CCNC1=O [Example 7, (3R)-3-({[4-Amino-6-(ethoxymethyl)-5-(7-methoxy-5-methyl-1-benzothiophen-2-yl)pyrrolo-[2,1-f][1,2,4]triazin-7-yl]methyl}amino)pyrrolidin-2-one dihydrochloride] was tested. Which IC50 did it give?
**A.** The IC50 was 4.2 nM.
